Conditions: Liquid, Frequency=8 MHz, Pulse-echo method

CCCCO [butan-1-ol]
Conditions | speed of sound [m/s]
253.15 K, 108 kPa | 1399.2
253.15 K, 5065 kPa | 1423.1
253.15 K, 10086 kPa | 1446.2
253.15 K, 15035 kPa | 1468.3
253.15 K, 20115 kPa | 1490.2
253.15 K, 25062 kPa | 1510.8
253.15 K, 30526 kPa | 1532.7
273.15 K, 103 kPa | 1326.1
273.15 K, 5008 kPa | 1351.9
273.15 K, 10094 kPa | 1377.2
273.15 K, 15185 kPa | 1401.4
273.15 K, 20115 kPa | 1424.1
273.15 K, 25088 kPa | 1446.1
273.15 K, 30170 kPa | 1467.9
293.15 K, 104 kPa | 1256.4
293.15 K, 5067 kPa | 1284.6
293.15 K, 10144 kPa | 1311.7
293.15 K, 15081 kPa | 1336.9
293.15 K, 20094 kPa | 1361.5
293.15 K, 25087 kPa | 1385
293.15 K, 30176 kPa | 1408.1
313.15 K, 100 kPa | 1189.2
313.15 K, 5050 kPa | 1219.2
313.15 K, 10082 kPa | 1248.2
313.15 K, 15167 kPa | 1276
313.15 K, 20187 kPa | 1302.2
313.15 K, 25473 kPa | 1328.5
313.15 K, 30162 kPa | 1351
333.15 K, 99 kPa | 1122.9
333.15 K, 5055 kPa | 1155.5
333.15 K, 10099 kPa | 1186.8
333.15 K, 15058 kPa | 1215.8
333.15 K, 20149 kPa | 1244.2
333.15 K, 25167 kPa | 1270.8
333.15 K, 30276 kPa | 1296.8
353.15 K, 100 kPa | 1056.4
353.15 K, 5013 kPa | 1091.6
353.15 K, 10032 kPa | 1125.3
353.15 K, 15066 kPa | 1157.1
353.15 K, 20085 kPa | 1187
353.15 K, 25075 kPa | 1215.1
353.15 K, 30204 kPa | 1242.7

CCO [ethanol]
Conditions | speed of sound [m/s]
253.15 K, 101 kPa | 1304.8
253.15 K, 4988 kPa | 1329.9
253.15 K, 10126 kPa | 1355.1
253.15 K, 15056 kPa | 1378.4
253.15 K, 19988 kPa | 1400.8
253.15 K, 25051 kPa | 1423
253.15 K, 30366 kPa | 1445.5
273.15 K, 101 kPa | 1230.4
273.15 K, 5095 kPa | 1258.5
273.15 K, 10288 kPa | 1286.1
273.15 K, 15102 kPa | 1310.6
273.15 K, 19986 kPa | 1334.4
273.15 K, 25007 kPa | 1357.9
273.15 K, 30061 kPa | 1380.6
293.15 K, 101 kPa | 1159.8
293.15 K, 5052 kPa | 1190
293.15 K, 9984 kPa | 1218.5
293.15 K, 15097 kPa | 1246.4
293.15 K, 20038 kPa | 1272.2
293.15 K, 25073 kPa | 1297.3
293.15 K, 30034 kPa | 1321
313.15 K, 101 kPa | 1091.6
313.15 K, 5015 kPa | 1124.4
313.15 K, 10081 kPa | 1156
313.15 K, 15057 kPa | 1185.3
313.15 K, 20137 kPa | 1213.6
313.15 K, 25255 kPa | 1240.7
313.15 K, 30161 kPa | 1265.5
333.15 K, 101 kPa | 1024.9
333.15 K, 5287 kPa | 1062.5
333.15 K, 10309 kPa | 1096.4
333.15 K, 15132 kPa | 1126.9
333.15 K, 20140 kPa | 1156.7
333.15 K, 25071 kPa | 1184.6
333.15 K, 30117 kPa | 1211.7
353.15 K, 110 kPa | 957.67
353.15 K, 5428 kPa | 1000.1
353.15 K, 10327 kPa | 1036.1
353.15 K, 15492 kPa | 1071.3
353.15 K, 20337 kPa | 1102.3
353.15 K, 25296 kPa | 1132.1
353.15 K, 29944 kPa | 1158.6

CO [methanol]
Conditions | speed of sound [m/s]
253.15 K, 101 kPa | 1259.4
253.15 K, 5031 kPa | 1283.6
253.15 K, 10064 kPa | 1307.3
253.15 K, 15070 kPa | 1329.9
253.15 K, 20048 kPa | 1351.5
253.15 K, 25130 kPa | 1372.8
253.15 K, 30260 kPa | 1393.5
273.15 K, 101 kPa | 1187.3
273.15 K, 5017 kPa | 1213.8
273.15 K, 10158 kPa | 1240
273.15 K, 15070 kPa | 1264
273.15 K, 20132 kPa | 1287.6
273.15 K, 25155 kPa | 1310.1
273.15 K, 30074 kPa | 1331.4
293.15 K, 101 kPa | 1119.1
293.15 K, 5028 kPa | 1147.8
293.15 K, 10032 kPa | 1175.5
293.15 K, 15145 kPa | 1202.4
293.15 K, 20159 kPa | 1227.6
293.15 K, 25062 kPa | 1251.1
293.15 K, 30276 kPa | 1275.1
313.15 K, 101 kPa | 1053.2
313.15 K, 5046 kPa | 1084.8
313.15 K, 10127 kPa | 1115.4
313.15 K, 15085 kPa | 1143.5
313.15 K, 19989 kPa | 1170
313.15 K, 25090 kPa | 1196.1
313.15 K, 30009 kPa | 1220.1
333.15 K, 101 kPa | 988.92
333.15 K, 5029 kPa | 1023.7
333.15 K, 10110 kPa | 1056.9
333.15 K, 15215 kPa | 1088.2
333.15 K, 20093 kPa | 1116.3
333.15 K, 25061 kPa | 1143.5
333.15 K, 30122 kPa | 1169.9
353.15 K, 197 kPa | 925.58
353.15 K, 5097 kPa | 963.76
353.15 K, 10106 kPa | 999.62
353.15 K, 15143 kPa | 1033
353.15 K, 20216 kPa | 1064.5
353.15 K, 25221 kPa | 1093.7
353.15 K, 30092 kPa | 1120.6

CCCO [propan-1-ol]
Conditions | speed of sound [m/s]
253.15 K, 102 kPa | 1368
253.15 K, 5133 kPa | 1393
253.15 K, 10109 kPa | 1416.6
253.15 K, 15198 kPa | 1439.9
253.15 K, 20092 kPa | 1461.4
253.15 K, 25341 kPa | 1483.7
253.15 K, 30423 kPa | 1504.6
273.15 K, 101 kPa | 1293.5
273.15 K, 5181 kPa | 1320.8
273.15 K, 10163 kPa | 1346.3
273.15 K, 15287 kPa | 1371.4
273.15 K, 20261 kPa | 1394.8
273.15 K, 25076 kPa | 1416.6
273.15 K, 30164 kPa | 1438.9
293.15 K, 105 kPa | 1222.5
293.15 K, 5042 kPa | 1251.2
293.15 K, 10141 kPa | 1279.3
293.15 K, 15272 kPa | 1306.3
293.15 K, 20136 kPa | 1330.7
293.15 K, 25068 kPa | 1354.6
293.15 K, 30231 kPa | 1378.5
313.01 K, 30237 kPa | 1321.2
313.15 K, 108 kPa | 1154.1
313.15 K, 5139 kPa | 1185.8
313.15 K, 10136 kPa | 1215.4
313.15 K, 15128 kPa | 1243.6
313.15 K, 20151 kPa | 1270.6
313.15 K, 25136 kPa | 1296.1
333.15 K, 101 kPa | 1086.8
333.15 K, 5018 kPa | 1120.5
333.15 K, 10050 kPa | 1152.8
333.15 K, 15186 kPa | 1183.9
333.15 K, 20183 kPa | 1212.5
333.15 K, 25121 kPa | 1239.5
333.15 K, 30028 kPa | 1265
353.15 K, 104 kPa | 1018.9
353.15 K, 5034 kPa | 1056
353.15 K, 10009 kPa | 1090.8
353.15 K, 15132 kPa | 1124.2
353.15 K, 20099 kPa | 1154.8
353.15 K, 25054 kPa | 1183.6
353.15 K, 30493 kPa | 1213.6

Reference: the NIST ThermoML archive (doi:10.1016/j.jct.2015.10.006)
